Laboratory results taken from ChEMBL document CHEMBL4184126, “Synthesis of novel 6-substituted amino-9-(β-d-ribofuranosyl)purine analogs and their bioactivities on human epithelial cancer cells” (Bioorg Med Chem Lett, 2018).

Experiments:
Format in all cases: functional, cell-based
Huh-7 = test: Antiproliferative activity against human HuH7 cells after 72 hrs by SRB assay
Mahlavu = test: Antiproliferative activity against human Mahlavu cells after 72 hrs by SRB assay
[1] = Antiproliferative activity against human FOCUS cells after 72 hrs by SRB assay
MCF7 = test: Antiproliferative activity against human MCF7 cells after 72 hrs by SRB assay
HepG2 = test: Antiproliferative activity against human HepG2 cells after 72 hrs by SRB assay
HCT-116 = test: Antiproliferative activity against human HCT116 cells after 72 hrs by SRB assay
[2] = Homo sapiens, Huh-7, 72 h, read-out: IC50
[3] = Homo sapiens, Mahlavu, 72 h, read-out: IC50
[4] = Homo sapiens, 72 h, read-out: IC50
[5] = Homo sapiens, MCF7, 72 h, read-out: IC50
[6] = Homo sapiens, HepG2, 72 h, read-out: IC50
[7] = Homo sapiens, HCT-116, 72 h, read-out: IC50

SMILES | IC50 (Huh-7; [2]) [µM] | IC50 (Mahlavu; [3]) [µM] | IC50 [1, 4] [µM] | IC50 (MCF7; [5]) [µM] | IC50 (HepG2; [6]) [µM] | IC50 (HCT-116; [7]) [µM] | IC50 (Huh-7; huh-7) | IC50 (HepG2; hepg2) | IC50 [1] | IC50 (MCF7; mcf7) | IC50 (HCT-116; hct-116) | IC50 (Mahlavu; mahlavu)
CN(C)c1ccc(Nc2ncnc3c2ncn3[C@@H]2O[C@H](CO)[C@@H](O)[C@H]2O)cc1 | 80 | 30 | 20 | 30 | 30 | 40 | – | – | – | – | – | –
OC[C@H]1O[C@@H](n2cnc3c(N4CCN(c5ccc(C(F)(F)F)cc5)CC4)nc(Cl)nc32)[C@H](O)[C@@H]1O | 1 to 2 | 3 | 1 | 4 | 3 | 1 | – | – | – | – | – | –
Cc1ccc(N2CCN(c3ncnc4c3ncn4[C@@H]3O[C@H](CO)[C@@H](O)[C@H]3O)CC2)cc1 | – | > 100 | 40 | > 100 | – | 70 | Not Active | Not Active | – | – | – | –
OC[C@H]1O[C@@H](n2cnc3c(NCCC4=CCCCC4)ncnc32)[C@H](O)[C@@H]1O | > 100 | > 100 | – | 3 | 1 | 6 | – | – | Not Active | – | – | –
CSc1ccc(Nc2ncnc3c2ncn3[C@@H]2O[C@H](CO)[C@@H](O)[C@H]2O)cc1 | – | – | – | – | – | > 100 | Not Active | – | – | Not Active | – | –
OC[C@H]1O[C@@H](n2cnc3c(N4CCN(C5CCCCC5)CC4)ncnc32)[C@H](O)[C@@H]1O | – | – | – | – | – | > 100 | Not Active | – | – | Not Active | – | –
Nc1nc(Cl)nc2c1ncn2[C@H]1C[C@H](O)[C@@H](CO)O1 [CLADRIBINE] | 0.4 to 0.9 | 0.1 | 0.4 | – | 0.04 | < 0.1 | – | – | – | – | – | –
Nc1nc(F)nc2c1ncn2[C@@H]1O[C@H](CO)[C@@H](O)[C@@H]1O [FLUDARABINE] | 30 | 10 | 10 | 15 | 20 | 8 | – | – | – | – | – | –
OC[C@H]1O[C@@H](n2cnc3c(N4CCN(c5ncccn5)CC4)ncnc32)[C@H](O)[C@@H]1O | – | – | – | 40 | – | > 100 | Not Active | – | – | – | – | –
OC[C@H]1O[C@@H](n2cnc3c(NCCNc4ccccc4)ncnc32)[C@H](O)[C@@H]1O | – | – | – | > 100 | – | 30 | Not Active | – | – | – | – | –
O=c1[nH]cc(F)c(=O)[nH]1 [FLUOROURACIL] | 30 | 10 | 4 | 3 | – | 4 | – | – | – | – | – | –
CC(C)c1ccc(Nc2ncnc3c2ncn3[C@@H]2O[C@H](CO)[C@@H](O)[C@H]2O)cc1 | 60 | 40 | 20 | 50 | 40 | 10 | – | – | – | – | – | –
OC[C@H]1O[C@@H](n2cnc3c(NCCC4=CCCCC4)nc(Cl)nc32)[C@H](O)[C@@H]1O | 20 | 30 | 50 | 30 | 40 | 90 | – | – | – | – | – | –
Nc1nc(N2CCN(c3ncccn3)CC2)c2ncn([C@@H]3O[C@H](CO)[C@@H](O)[C@H]3O)c2n1 | – | – | – | – | – | – | Not Active | – | – | Not Active | Not Active | –
Nc1nc(N2CCN(c3ccccc3)CC2)c2ncn([C@@H]3O[C@H](CO)[C@@H](O)[C@H]3O)c2n1 | 50 | – | 9 | – | > 100 | 30 | – | – | – | Not Active | – | Not Active
OC[C@H]1O[C@@H](n2cnc3c(Nc4ccc(N5CCOCC5)cc4)ncnc32)[C@H](O)[C@@H]1O | – | – | – | 80 | – | – | Not Active | – | – | – | Not Active | –
Nc1nc(N2CCN(c3ccc(F)cc3)CC2)c2ncn([C@@H]3O[C@H](CO)[C@@H](O)[C@H]3O)c2n1 | > 100 | – | – | – | – | 30 | – | – | – | Not Active | – | –
Cc1ccc(N2CCN(c3nc(N)nc4c3ncn4[C@@H]3O[C@H](CO)[C@@H](O)[C@H]3O)CC2)cc1 | – | – | – | – | – | – | Not Active | – | – | Not Active | Not Active | –
Nc1nc(N2CCN(C(c3ccccc3)c3ccccc3)CC2)c2ncn([C@@H]3O[C@H](CO)[C@@H](O)[C@H]3O)c2n1 | 10 | 7 | 20 | 20 | 20 | 20 | – | – | – | – | – | –
